Assay results from publication PMC9412994 (Pharmaceutics, 2022).
Where two headings read alike, the source gives them in different places. Values belong to the compound of their own block, whether it stands above or below them.

Experiments:
[1] = tested on: bovine brain capillary endothelial cells; conditions: bovine brain capillary endothelial cells on filter inserts, co-culture with glial cells; cited from earlier work
[2] = rats, cited from earlier work
[3] = tested on: rodent P-gp; design: method as in PMID 32856111; conditions: LLC-PK1-Mdr1a cells; cited from earlier work
[4] = target: T1, human P-gp (Homo sapiens, UniProt P08183); conditions: MDCK-MDR1 cells, same origin; cited from earlier work
T1 construct: host or cells: MDCKII-MDR1 (stably transfected canine kidney cells)
T1 sequence (P08183 whole entry): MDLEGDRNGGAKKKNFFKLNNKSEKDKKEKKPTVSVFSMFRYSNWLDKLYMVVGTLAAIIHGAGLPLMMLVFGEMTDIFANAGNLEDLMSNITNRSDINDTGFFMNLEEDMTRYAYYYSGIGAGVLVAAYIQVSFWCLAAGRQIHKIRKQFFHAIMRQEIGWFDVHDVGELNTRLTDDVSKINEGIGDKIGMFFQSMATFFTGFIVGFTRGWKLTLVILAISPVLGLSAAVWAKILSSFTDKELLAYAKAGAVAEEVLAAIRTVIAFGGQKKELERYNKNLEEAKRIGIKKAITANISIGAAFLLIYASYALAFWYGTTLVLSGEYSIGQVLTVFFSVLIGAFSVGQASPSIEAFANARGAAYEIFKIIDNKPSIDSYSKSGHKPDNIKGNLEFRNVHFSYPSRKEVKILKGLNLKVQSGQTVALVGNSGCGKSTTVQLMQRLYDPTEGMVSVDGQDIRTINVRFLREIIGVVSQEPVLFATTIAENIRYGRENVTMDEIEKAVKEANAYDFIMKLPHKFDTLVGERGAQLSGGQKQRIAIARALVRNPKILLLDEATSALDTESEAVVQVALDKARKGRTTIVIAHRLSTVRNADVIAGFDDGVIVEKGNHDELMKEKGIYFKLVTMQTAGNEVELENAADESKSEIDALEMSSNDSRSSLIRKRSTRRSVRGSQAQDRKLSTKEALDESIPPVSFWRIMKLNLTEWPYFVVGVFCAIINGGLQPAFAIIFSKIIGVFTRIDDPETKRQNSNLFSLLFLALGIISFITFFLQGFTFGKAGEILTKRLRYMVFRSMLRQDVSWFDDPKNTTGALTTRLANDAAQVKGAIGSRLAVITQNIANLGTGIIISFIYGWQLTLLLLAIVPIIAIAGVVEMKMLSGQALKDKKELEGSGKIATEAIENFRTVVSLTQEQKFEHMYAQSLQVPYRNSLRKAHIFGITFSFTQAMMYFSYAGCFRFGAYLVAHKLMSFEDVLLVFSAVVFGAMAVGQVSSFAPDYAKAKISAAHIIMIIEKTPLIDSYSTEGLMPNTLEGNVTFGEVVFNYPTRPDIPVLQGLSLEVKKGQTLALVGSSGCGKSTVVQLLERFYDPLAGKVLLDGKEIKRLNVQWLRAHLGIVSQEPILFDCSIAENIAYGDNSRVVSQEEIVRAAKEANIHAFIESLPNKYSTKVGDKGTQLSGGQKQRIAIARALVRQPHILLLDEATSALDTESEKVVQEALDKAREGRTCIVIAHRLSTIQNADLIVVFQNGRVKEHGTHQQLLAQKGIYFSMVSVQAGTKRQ

[5] = tested on: P-gp; conditions: cited from earlier work
[6] = cited from earlier work
[7] = Arterial input function and plasma metabolism of the radiotracer in rats; format: in vivo; conditions: rat
Procedure: Blood samples (50 µL) were collected at selected times from the femoral artery to establish total radioactivity kinetics in arterial plasma. Plasma was separated from whole blood by centrifugation (5 min, 2054 g, 4 °C), and 20 µL of plasma and whole blood were counted using a PET cross-calibrated gamma well counter (WIZARD2, PerkinElmer, Villebon-sur-Yvette, France) to obtain the whole-blood and plasma activity curves. All data were corrected for radioactive decay from the injection time. For the larger blood samples, 80 µL plasma was deproteinized with acetonitrile. The supernatant was injected in high-performance liquid chromatography, equipped with an Atlantis® T3 5 μm 10 × 250 mm column (Waters, Guyancourt, France) and an Atlantis® T3 5 μm 19 × 10 mm pre-column (Waters) with an LB-514 radioactivity flow detector (Berthold, France, MX Z100 cell). The mobile phase was composed of water containing 0.1% (v/v) TFA (solvent A) and acetonitrile containing 0.1% (v/v) TFA (solvent B) delivered in a gradient elution mode at a flow rate of 5 mL min^−1: solvent B increased linearly from 20 to 30% from 0 to 9 min.
The method for [^11C]metoclopramide metabolism has been previously reported.

[8] = target: T1, human P-gp; design: method as in PMID 34496661; conditions: cited from earlier work; for IC50: read-out: IC50 of TQD (P-gp inhibition)
[9] = Brain PET imaging in rats at baseline and after P-gp inhibition with TQD; format: in vivo; conditions: rat
Procedure: (§1) PET acquisitions were performed using an Inveon microPET scanner (Siemens, TN, USA). […] Radiotracers were diluted in saline to obtain at least <10% ethanol in the ready-to-inject preparation.
(§2) TQD was used to inhibit P-gp function in rats. TQD was injected in a volume of 200–300 µL into the caudal vein 15 min before radiotracer injection.
(§3) Images were reconstructed with the Fourier rebinning algorithm and the three-dimensional ordered-subset expectation-maximization algorithm, including normalization, attenuation, scatter, and random corrections. Image analysis and quantification of radioactivity uptake were performed using PMOD software (version 3.9; PMOD Technologies, Zurich, Switzerland). A region of interest was drawn over the whole brain to generate time-activity curves (TACs) with time frame durations of 0.25 min, 2 × 0.5 min, 0.75 min, 4 × 1 min, 1.5 min, 4 × 2 min, 3 × 2.5 min, 3 × 3 min, and 3.5 min. Brain radioactivity was corrected for ^11C decay and expressed as the standardized uptake value (SUV) after correction by injected dose and animal weight.
(§4) The mean AUCplasma 20–30 was obtained in each condition to estimate Kp,brain = AUCbrain 20–30/AUCplasma 20–30, considering the mean metabolite-corrected arterial input function. Kp,brain were compared with a two-way ANOVA and a Tukey’s post hoc test using Graphpad Prism software (V8.0, San Diego, CA, USA).

[10] = tested on: P-gp; assay: as above; format: in vivo; conditions: brain/plasma, with tariquidar; rat; presence of P-gp inhibition (TQD); newly calculated from published PET data of ref 21, 24
Procedure: as §1, §2, §3, §4

[11] = rat; 60 min post-injection; cited from earlier work
[12] = design: method as in PMID 26585058, PMID 34496661; conditions: rat; 8 mg/kg tariquidar versus baseline; cited from earlier work
[13] = target: T1, human P-gp; assay: Uptake assay in P-gp overexpressing MDCKII-MDR1 cells with radiolabeled substrate and tariquidar; format: cell-based; conditions: [11C]domperidone as substrate, 30 min incubation, CI95% 198-248 nM, read-out: IC50 of TQD (P-gp inhibition)
Procedure: Culture media and buffers were obtained from Fischer Scientific, France. Stably transfected MDCKII-MDR1 cells were obtained from Dr. Alfred Schinkel (National Cancer Institute, Amsterdam, The Netherlands) and were grown under a controlled atmosphere at 37 °C, 5% CO2. The culture medium was composed of DMEM Glutamax (Dulbecco’s Modified Eagle Medium, 4.5 g/Ldextrose, 1 mM pyruvate) supplemented with 10% fetal bovine serum and 1% antibiotics (penicillin and streptomycin 5000 U/mL).
Cells were seeded in 24-well plates (30,000 cells per well) in a 500 μL culture medium. Cells were grown to confluence (~2 days). […] Then, 400 μL of cell lysate was collected from each well (n = 4 wells per condition) and gamma counted using a Cobra Quantum (Perkin-Elmer, Villebon-sur-Yvette, France).
Counting values obtained in each well were normalized using Equation (1):(1) I%=R−mRzero/mRmax×100 where I% is the extent of inhibition (I%) between 0 and 100%, R is the radioactivity in the 4 tested wells, mRzero is the mean of the 4 wells without TQD, and mRmax is the difference of means between the 4 wells containing the highest concentration of TQD (800 nM) and the 4 wells without TQD. […]

SMILES: CCN(CC)CCNC(=O)c1cc(Cl)c(N)cc1OC [Metoclopramide]
Passage across in vitro BBB model compared with passage across the filter (no BBB) [1]: 100%
Kp,uu,brain ([2]; another study): 0.235
Tissue/plasma ratio (Kp,brain) ([2]; ex vivo): 1.72
Kp,uu,brain [2]: 2.4
Efflux ratio [3]: 1.6
Efflux ratio [4]: 1.4
Fold increase in Kp,brain in P-gp deficient mice compared with wild-type mice [5]: 6.6 fold
Neurological side effects: Frequent [6]: extrapyramidal signs, parkinsonian syndrome, akathisia
Neurological side effects: Not Frequent [6]: dystonia, dyskinesia, altered consciousness
Neurological side effects: Rare [6]: convulsions
Neurological side effects: Unspecified frequency [6]: late dyskinesia, neuroleptic malignant syndrome
Neurological side effects: Very Frequent [6]: sleepiness

Parent (unmetabolized) fraction in plasma ([7]; 60 min post-injection): > 30%
Effect of TQD on the fraction of parent (unmetabolized) radiotracer in plasma ([7]; with versus without TQD): did not impact
SMILES: O=c1[nH]c2cc(Cl)ccc2n1C1CCN(CCCn2c3ccccc3[nH][11c]2=O)CC1 [[^11C]domperidone]

Kp ([9]; brain/plasma, absence of P-gp inhibition, newly calculated from published PET data of ref 21, 24): 10.1 ± 2.01
Baseline brain exposure (AUCbrain), fold higher compared with [11C]domperidone ([9]; baseline): 2.4 fold
Kp [10]: 47 ± 5.52
SMILES: CCN(CC)CCNC(=O)c1cc(Cl)c(N)cc1O[11CH3] [[^11C]metoclopramide]
Uptake ratio (intracellular radioactivity after complete P-gp inhibition / without inhibition) ([8]; MDCKII-MDR1 cells, 200 nM TQD): 1.4 ± 0.07
Parent (unmetabolized) fraction in plasma [11]: could hardly be detected
Maximal increase in brain exposure [12]: 2.9 fold

IC50 [13]: 221 nM
SMILES: COc1cc2c(cc1OC)CN(CCc1ccc(NC(=O)c3cc(OC)c(OC)cc3NC(=O)c3cnc4ccccc4c3)cc1)CC2 [tariquidar, Tariquidar]
IC50 ([8]; [11C]N-desmethyl-loperramide as substrate probe, same experimental conditions): 19 nM
IC50 ([8]; [11C]metoclopramide as substrate, MDCKII-MDR1 cells, CI95% 2-8 nM): 4 nM
IC50 ([8]; [11C]verapamil as substrate probe, same experimental conditions): 45 nM
